Experimental data from patent US11180496B2 (Daewoong Pharmaceutical Co., Ltd., priority 2017, dated 2021).

Key:
[1] = biological target: T1, BTK (Homo sapiens, UniProt Q06187); assay: BTK inhibitory activity, ADP-Glo + BTK Kinase enzyme system kit (Promega); type: biochemical; settings: BTK enzyme 1 ng/uL, ATP 10 uM, 15 min preincubation, luminescence, duplicate
T1 construct: purchased Promega
Procedure, shortened: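 BTK activity measured by ADP-Glo luminescence: kinase reaction with substrate and 10 uM ATP (final) for 1 h at 30°C, then ADP-Glo reagent 40 min and detection 30 min at 30°C. Run in duplicate; IC50 calculated relative to no-compound and positive controls.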

[2] = biological target: T2, ITK (Homo sapiens, UniProt Q08881); assay: ITK inhibitory activity, ADP-Glo + ITK Kinase enzyme system kit (Promega); type: biochemical; settings: ITK enzyme 0.4 ng/uL, ATP 25 uM, 15 min preincubation, luminescence, duplicate
T2 construct: purchased Promega
T2 sequence (Q08881 1-620): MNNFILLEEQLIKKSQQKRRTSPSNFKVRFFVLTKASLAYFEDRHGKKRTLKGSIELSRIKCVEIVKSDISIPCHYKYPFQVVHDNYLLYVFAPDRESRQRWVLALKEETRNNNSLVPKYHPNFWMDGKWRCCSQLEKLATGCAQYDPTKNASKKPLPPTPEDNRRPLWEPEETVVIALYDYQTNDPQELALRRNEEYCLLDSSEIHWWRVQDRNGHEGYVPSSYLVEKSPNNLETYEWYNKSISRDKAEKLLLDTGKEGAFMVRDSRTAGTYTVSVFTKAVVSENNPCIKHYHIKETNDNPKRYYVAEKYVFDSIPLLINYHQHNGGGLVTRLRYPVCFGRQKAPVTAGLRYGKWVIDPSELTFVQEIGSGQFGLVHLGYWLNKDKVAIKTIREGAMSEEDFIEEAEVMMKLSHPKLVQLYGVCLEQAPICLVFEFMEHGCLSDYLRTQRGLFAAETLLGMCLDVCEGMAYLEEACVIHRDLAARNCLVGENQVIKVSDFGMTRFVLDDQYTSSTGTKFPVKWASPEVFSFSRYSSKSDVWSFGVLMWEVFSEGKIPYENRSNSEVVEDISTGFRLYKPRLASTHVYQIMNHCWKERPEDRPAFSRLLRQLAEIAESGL
Procedure, shortened: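 ITK activity by ADP-Glo luminescence: substrate and ATP (final 25 uM) reacted 1 h at 30° C, then ADP-Glo reagent 40 min and detection reagent 30 min at 30° C. IC50 from duplicates, normalised to no-compound and enzyme-free controls.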

T1 sequence (Q06187 whole entry): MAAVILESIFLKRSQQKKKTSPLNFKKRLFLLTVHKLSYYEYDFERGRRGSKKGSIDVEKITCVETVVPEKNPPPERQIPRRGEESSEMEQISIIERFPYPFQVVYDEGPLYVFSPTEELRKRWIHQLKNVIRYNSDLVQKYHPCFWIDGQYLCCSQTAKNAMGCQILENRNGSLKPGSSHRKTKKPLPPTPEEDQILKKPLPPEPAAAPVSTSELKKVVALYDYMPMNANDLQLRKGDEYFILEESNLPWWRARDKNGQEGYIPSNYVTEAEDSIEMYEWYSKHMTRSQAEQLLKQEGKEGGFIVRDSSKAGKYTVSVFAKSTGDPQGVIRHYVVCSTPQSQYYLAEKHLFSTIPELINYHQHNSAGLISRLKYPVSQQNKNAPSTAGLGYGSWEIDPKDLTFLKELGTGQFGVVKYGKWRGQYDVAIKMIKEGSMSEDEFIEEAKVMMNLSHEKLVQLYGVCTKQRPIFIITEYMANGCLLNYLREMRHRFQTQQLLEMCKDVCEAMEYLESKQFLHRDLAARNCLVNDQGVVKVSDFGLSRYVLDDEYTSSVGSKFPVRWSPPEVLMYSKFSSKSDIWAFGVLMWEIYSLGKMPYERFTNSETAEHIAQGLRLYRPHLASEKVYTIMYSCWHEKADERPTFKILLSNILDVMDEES

SMILES	IC50 [1] [nM]	IC50 [2] [nM]
C=CC(=O)N1CCC[C@@H](n2nc(C(=O)OC(C)(C)C)c3c(N)nccc32)C1 [Example 72, (R)-tert-butyl 1-(1-acryloylpiperidin-3-yl)-4-amino-1H-pyrazolo[4,3-c]pyridine-3-carboxylate]	88.9	68.2
C=CC(=O)N1CCC[C@@H](n2nc(C(=O)Nc3nc4ccc(Br)cc4o3)c3c(N)nccc32)C1 [Example 73, (R)-1-(1-acryloylpiperidin-3-yl)-4-amino-N-(6-bromobenzo[d]oxazol-2-yl)-1H-pyrazolo[4,3-c]pyridine-3-carboxamide]	32	141
C=CC(=O)N1CCC[C@@H](n2nc(C(=O)Nc3nc4ccccc4o3)c3c(N)nccc32)C1 [Example 77, (R)-1-(1-acryloylpiperidin-3-yl)-4-amino-N-(benzo[d]oxazol-2-yl)-1H-pyrazolo[4,3-c]pyridine-3-carboxamide]	5	13.1
C=CC(=O)N1CCC[C@@H](n2nc(C(=O)Nc3ccccc3)c3c(N)ncc(Cl)c32)C1 [Example 78, (R)-1-(1-acryloylpiperidin-3-yl)-4-amino-7-chloro-N-phenyl-1H-pyrazolo[4,3-c]pyridine-3-carboxamide]	22.1	27
C=CC(=O)N1CCC[C@@H](n2nc(C(=O)Nc3ccc4c(c3)OCCO4)c3c(N)ncc(Cl)c32)C1 [Example 79, (R)-1-(1-acryloylpiperidin-3-yl)-4-amino-7-chloro-N-(2,3-di hydrobenzo[b][1,4]dioxin-6-yl)-1H-pyrazolo[4,3-c]pyridine-3-carboxamide]	100	54.9

The next compounds have a lower IC50 [1] than those just listed; values first:

IC50 [1] [nM]	IC50 [2] [nM]	SMILES
3.4	4.1	C=CC(=O)N1CCC[C@@H](n2nc(C(=O)Nc3nc4cc(Cl)ccc4o3)c3c(N)nccc32)C1 [Example 71, (R)-1-(1-acryloylpiperidin-3-yl)-4-amino-N-(5-chlorobenzo[d]oxazol-2-yl)-1H-pyrazolo[4,3-c]pyridine-3-carboxamide]
3.3	6.4	C=CC(=O)N1CCC[C@@H](n2nc(C(=O)Nc3nc4cc(Cl)ccc4o3)c3c(N)ncc(Cl)c32)C1 [Example 74, (R)-1-(1-acryloylpiperidin-3-yl)-4-amino-7-chloro-N-(5-chlorobenzo[d]oxazol-2-yl)-1H-pyrazolo[4,3-c]pyridine-3-carboxamide]
2.2	2.4	C=CC(=O)N1CCC[C@@H](n2nc(C(=O)Nc3nc4ccccc4o3)c3c(N)ncc(Cl)c32)C1 [Example 75, (R)-1-(1-acryloylpiperidin-3-yl)-4-amino-N-(benzo[d]oxazol-2-yl)-7-chloro-1H-pyrazolo[4,3-c]pyridine-3-carboxamide]
2	2.9	C=CC(=O)N1CCC[C@@H](n2nc(-c3ccc(C(=O)Nc4ccccn4)cc3Cl)c3c(N)ncc(C=C)c32)C1 [Example 69, (R)-4-(1-(1-acryloylpiperidin-3-yl)-4-amino-7-vinyl-1H-pyrazolo[4,3-c]pyridin-3-yl)-3-chloro-N-(pyridin-2-yl)benzamide]
2	5.2	C=CC(=O)N1CCC[C@@H](n2nc(-c3ccc(C(=O)Nc4ccccn4)cc3Cl)c3c(N)ncc(-c4cn[nH]c4)c32)C1 [Example 70, (R)-4-(1-(1-acryloylpiperidin-3-yl)-4-amino-7-(1H-pyrazol-4-yl)-1H-pyrazolo[4,3-c]pyridin-3-yl)-3-chloro-N-(pyridin-2-yl)benzamide]
1.5	2.1	C=CC(=O)N1CCC[C@@H](n2nc(C(=O)Nc3nc4cc(F)ccc4o3)c3c(N)ncc(Cl)c32)C1 [Example 76, (R)-1-(1-acryloylpiperidin-3-yl)-4-amino-7-chloro-N-(5-fluorobenzo[d]oxazol-2-yl)-1H-pyrazolo[4,3-c]pyridine-3-carboxamide]
